Experimental data taken from patent US10259810B2, “N-sulfonylated pyrazolo[3,4-b]pyridin-6-carboxamides and method of use” (AbbVie S.à.r.l., priority 2015, dated 2019).

Legend:
ΔF508-CFTR [1] = biological target: T1, ΔF508-CFTR (Homo sapiens, UniProt P13569, DEL508-508); test: CFTR cell surface levels using HRP-tagged ΔF508-CFTR expressing CFBE cells, in the presence of a co-corrector; format: cell-based; conditions: HRP-tagged ΔF508-CFTR CFBE cells, in the presence of 3 μM co-corrector; for EC50: read-out: EC50
T1 construct: host or cells: CFBE41o-, doxycycline-inducible
T1 sequence (P13569 with tags, fused parts or gaps DEL508-508): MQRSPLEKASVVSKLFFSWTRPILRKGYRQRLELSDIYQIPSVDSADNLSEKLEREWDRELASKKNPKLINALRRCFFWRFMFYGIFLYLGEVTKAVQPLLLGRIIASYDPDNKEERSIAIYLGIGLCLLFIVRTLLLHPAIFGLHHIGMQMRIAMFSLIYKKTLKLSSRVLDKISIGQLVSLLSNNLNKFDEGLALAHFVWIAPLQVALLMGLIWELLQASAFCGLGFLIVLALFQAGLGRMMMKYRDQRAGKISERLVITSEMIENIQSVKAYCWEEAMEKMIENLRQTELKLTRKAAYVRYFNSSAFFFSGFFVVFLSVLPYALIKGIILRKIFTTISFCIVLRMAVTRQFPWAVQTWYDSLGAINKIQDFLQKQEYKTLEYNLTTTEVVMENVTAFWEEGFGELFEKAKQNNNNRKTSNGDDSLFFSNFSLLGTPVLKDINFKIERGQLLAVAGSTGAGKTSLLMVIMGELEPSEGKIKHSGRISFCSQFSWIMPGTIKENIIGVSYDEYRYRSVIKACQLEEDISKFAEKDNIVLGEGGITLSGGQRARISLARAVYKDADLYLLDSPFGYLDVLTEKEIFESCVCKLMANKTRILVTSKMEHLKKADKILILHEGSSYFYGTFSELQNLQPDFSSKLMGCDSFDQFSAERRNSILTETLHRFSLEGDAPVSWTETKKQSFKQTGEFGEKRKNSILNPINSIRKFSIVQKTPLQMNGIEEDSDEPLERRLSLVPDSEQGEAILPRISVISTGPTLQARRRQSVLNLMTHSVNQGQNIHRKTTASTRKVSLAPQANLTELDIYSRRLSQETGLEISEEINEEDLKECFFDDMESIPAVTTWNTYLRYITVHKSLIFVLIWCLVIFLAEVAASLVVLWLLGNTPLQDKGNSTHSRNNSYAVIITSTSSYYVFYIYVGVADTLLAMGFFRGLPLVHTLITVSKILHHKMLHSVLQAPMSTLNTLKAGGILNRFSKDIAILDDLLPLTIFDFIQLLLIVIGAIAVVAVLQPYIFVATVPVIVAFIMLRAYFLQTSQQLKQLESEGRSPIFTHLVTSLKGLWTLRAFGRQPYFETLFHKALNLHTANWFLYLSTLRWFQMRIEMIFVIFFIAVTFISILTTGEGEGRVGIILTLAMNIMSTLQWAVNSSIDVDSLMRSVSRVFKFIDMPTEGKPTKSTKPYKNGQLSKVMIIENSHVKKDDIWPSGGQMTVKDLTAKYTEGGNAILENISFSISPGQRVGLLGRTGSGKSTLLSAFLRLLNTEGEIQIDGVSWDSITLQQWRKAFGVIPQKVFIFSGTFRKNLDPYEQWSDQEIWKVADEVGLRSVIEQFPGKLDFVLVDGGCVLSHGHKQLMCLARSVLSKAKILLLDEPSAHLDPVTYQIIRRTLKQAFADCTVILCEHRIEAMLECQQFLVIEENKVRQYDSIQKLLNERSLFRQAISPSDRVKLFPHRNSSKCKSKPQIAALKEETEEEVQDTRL
In short: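 Chemiluminescent read-out of surface HRP (15 min, dark) after PBS washes. Activity is normalized as 100×(sample−DMSO)/(3 μM co-corrector alone−DMSO).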

ΔF508-CFTR [2] = biological target: T1, ΔF508-CFTR; test: CFTR cell surface levels using HRP-tagged ΔF508-CFTR expressing CFBE cells, intrinsic corrector capacity; format: cell-based; design: % Activation: concentration or dose not given beside the values; conditions: HRP-tagged ΔF508-CFTR expressing CFBE41o- cells, compound alone (intrinsic corrector capacity), 20 hours at 33° C.; for EC50: read-out: EC50
In short: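 Surface ΔF508-CFTR was measured as HRP chemiluminescence from an extracellular-loop-4 tag, expressed as percent activity between DMSO and a […] corrector control.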

Structure (SMILES) | % Activation (ΔF508-CFTR [1]) | EC50 (ΔF508-CFTR [1]) | % Activation (ΔF508-CFTR [2]) | EC50 (ΔF508-CFTR [2])
COCC1CCN(c2cc(C(=O)NS(=O)(=O)CC(N)=O)nc3c2c(C2CCC2)nn3-c2ccccc2)CC1 [Compound 384, N-(2-amino-2-oxoethanesulfonyl)-3-cyclobutyl-4-[4-(methoxymethyl)piperidin-1-yl]-1-phenyl-1H-pyrazolo[3,4-b]pyridine-6-carboxamide] | 391.35% | 1440 nM | 228% | 2860 nM
CS(=O)(=O)NC(=O)c1cc(N2CCC(CF)CC2)c2c(C3CCC3)nn(-c3ccccc3)c2n1 [Compound 220, 3-cyclobutyl-4-[4-(fluoromethyl)piperidin-1-yl]-N-(methanesulfonyl)-1-phenyl-1H-pyrazolo[3,4-b]pyridine-6-carboxamide] | 389.9% | 208 nM | 202.5% | 348 nM
CC(C)(C)c1nn(C2CCCC2)c2nc(C(=O)NS(C)(=O)=O)cc(-c3ccc(N4CCOCC4)nc3)c12 [Compound 12, 3-tert-butyl-1-cyclopentyl-N-(methanesulfonyl)-4-[6-(morpholin-4-yl)pyridin-3-yl]-1H-pyrazolo[3,4-b]pyridine-6-carboxamide] | 364.15% | 714 nM | 161.15% | 1070 nM
CN(C)S(=O)(=O)NC(=O)c1cc(N2CCC(N3CCOCC3)CC2)c2c(C3CCC3)nn(-c3cccc(F)c3)c2n1 [Compound 512, 3-cyclobutyl-N-(dimethylsulfamoyl)-1-(3-fluorophenyl)-4-[4-(morpholin-4-yl)piperidin-1-yl]-1H-pyrazolo[3,4-b]pyridine-6-carboxamide] | 415.25% | 65.3 nM | 222.27% | 121 nM
COCC1CCN(c2cc(C(=O)NS(=O)(=O)C3CC3)nc3c2c(C2CCC2)nn3-c2ccccc2)CC1 [Compound 401, 3-cyclobutyl-N-(cyclopropanesulfonyl)-4-[4-(methoxymethyl)piperidin-1-yl]-1-phenyl-1H-pyrazolo[3,4-b]pyridine-6-carboxamide] | 595.1% | 62 nM | 400.8% | 104 nM
CC(C)N1CCN(c2ccc(-c3cc(C(=O)NS(=O)(=O)N(C)C)nc4c3c(C3CCC3)nn4C3CCCCC3)cn2)CC1 [Compound 542, 3-cyclobutyl-1-cyclohexyl-N-(dimethylsulfamoyl)-4-{6-[4-(propan-2-yl)piperazin-1-yl]pyridin-3-yl}-1H-pyrazolo[3,4-b]pyridine-6-carboxamide] | 320.3% | 216 nM | 153.2% | 267 nM
CS(=O)(=O)NC(=O)c1cc(-c2ccc(N3CCC(C#N)CC3)nc2)c2c(OC3COC3)nn(-c3ccccc3)c2n1 [Compound 300, 4-[6-(4-cyanopiperidin-1-yl)pyridin-3-yl]-N-(methanesulfonyl)-3-[(oxetan-3-yl)oxy]-1-phenyl-1H-pyrazolo[3,4-b]pyridine-6-carboxamide] | 266.55% | 109 nM | 119.9% | 309 nM
COCCN1CCN(S(=O)(=O)NC(=O)c2cc(N3CCC(COC)CC3)c3c(C4CCC4)nn(-c4ccc(F)cc4)c3n2)CC1 [Compound 610, 3-cyclobutyl-1-(4-fluorophenyl)-N-[4-(2-methoxyethyl)piperazine-1-sulfonyl]-4-[4-(methoxymethyl)piperidin-1-yl]-1H-pyrazolo[3,4-b]pyridine-6-carboxamide] | 375.5% | 119 nM | 182.13% | 186 nM
CC(C)c1nn(-c2cccc(N3CCOCC3)c2)c2nc(C(=O)NS(C)(=O)=O)cc(-c3ccc(N(C)C)nc3)c12 [Compound 31, 4-[6-(dimethylamino)pyridin-3-yl]-N-(methanesulfonyl)-1-[3-(morpholin-4-yl)phenyl]-3-(propan-2-yl)-1H-pyrazolo[3,4-b]pyridine-6-carboxamide] | 423.27% | 204 nM | 203.4% | 318 nM
CC(C)c1nn(-c2ccccc2)c2nc(C(=O)NS(C)(=O)=O)cc(-c3ccc(N(C)C)cc3)c12 [Compound 7, 4-[4-(dimethylamino)phenyl]-N-(methanesulfonyl)-1-phenyl-3-(propan-2-yl)-1H-pyrazolo[3,4-b]pyridine-6-carboxamide] | 420.63% | 554 nM | 245% | 636 nM
O=C(NS(=O)(=O)C1CCOC1)c1cc(N2CCC(CCN3CCOCC3)CC2)c2c(C3CCC3)nn(-c3ccc(F)cc3)c2n1 (stereo not drawn) [Compound 452, 3-cyclobutyl-1-(4-fluorophenyl)-4-{4-[2-(morpholin-4-yl)ethyl]piperidin-1-yl}-N-(oxolane-3-sulfonyl)-1H-pyrazolo[3,4-b]pyridine-6-carboxamide] | 478.25% | 942 nM | 239.8% | 408 nM
CC(C)COC1CCN(c2cc(C(=O)NS(C)(=O)=O)nc3c2c(C(C)C)nn3-c2ccc(F)cc2)CC1 [Compound 175, 1-(4-fluorophenyl)-N-(methanesulfonyl)-4-[4-(2-methylpropoxy)piperidin-1-yl]-3-(propan-2-yl)-1H-pyrazolo[3,4-b]pyridine-6-carboxamide] | 461.1% | 200 nM | 270.5% | 337 nM
CC(C)c1nn(-c2cccc(N3CCOCC3)c2)c2nc(C(=O)NS(C)(=O)=O)cc(-c3ccc(N(C)C4CCOCC4)cc3)c12 [Compound 97, N-(methanesulfonyl)-4-{4-[methyl(oxan-4-yl)amino]phenyl}-1-[3-(morpholin-4-yl)phenyl]-3-(propan-2-yl)-1H-pyrazolo[3,4-b]pyridine-6-carboxamide] | 692.82% | 277 nM | 444.85% | 399 nM
COC[C@@H]1CCCN1C1CCN(S(=O)(=O)NC(=O)c2cc(N3CCC(N4CCOCC4)CC3)c3c(C4CCC4)nn(-c4ccccc4)c3n2)CC1 [Compound 439, 3-cyclobutyl-N-{4-[(2S)-2-(methoxymethyl)pyrrolidin-1-yl]piperidine-1-sulfonyl}-4-[4-(morpholin-4-yl)piperidin-1-yl]-1-phenyl-1H-pyrazolo[3,4-b]pyridine-6-carboxamide] | 374.6% | 381 nM | 166.8% | 550 nM
CC(C)Oc1nn(-c2ccccc2)c2nc(C(=O)NS(C)(=O)=O)cc(-c3ccc(N4CCOCC4)cc3)c12 [Compound 166, N-(methanesulfonyl)-4-[4-(morpholin-4-yl)phenyl]-1-phenyl-3-[(propan-2-yl)oxy]-1H-pyrazolo[3,4-b]pyridine-6-carboxamide] | 408.53% | 310 nM | 235.2% | 439 nM
COCCS(=O)(=O)NC(=O)c1cc(N2CCN(C(C)C)CC2)c2c(C3CCC3)nn(-c3ccccc3)c2n1 [Compound 271, 3-cyclobutyl-N-(2-methoxyethanesulfonyl)-1-phenyl-4-[4-(propan-2-yl)piperazin-1-yl]-1H-pyrazolo[3,4-b]pyridine-6-carboxamide] | 260.47% | 1020 nM | 63.905% | 1950 nM
CCS(=O)(=O)NC(=O)c1cc(-c2cnc(N(C)C)nc2)c2c(C)nn(C3CCCCC3)c2n1 [Compound 50, 1-cyclohexyl-4-[2-(dimethylamino)pyrimidin-5-yl]-N-(ethanesulfonyl)-3-methyl-1H-pyrazolo[3,4-b]pyridine-6-carboxamide] | 300% | 1080 nM | 109.8% | 1680 nM
Cc1cccc(-n2nc(C(C)C)c3c(N4CCC(CF)CC4)cc(C(=O)NS(C)(=O)=O)nc32)c1 [Compound 164, 4-[4-(fluoromethyl)piperidin-1-yl]-N-(methanesulfonyl)-1-(3-methylphenyl)-3-(propan-2-yl)-1H-pyrazolo[3,4-b]pyridine-6-carboxamide] | 492.45% | 388 nM | 295.25% | 594 nM
COC1CCN(C2CCN(c3cc(C(=O)NS(C)(=O)=O)nc4c3c(C3CCC3)nn4-c3ccc(F)cc3)CC2)CC1 [Compound 548, 3-cyclobutyl-1-(4-fluorophenyl)-N-(methanesulfonyl)-4-(4-methoxy[1,4'-bipiperidin]-1'-yl)-1H-pyrazolo[3,4-b]pyridine-6-carboxamide] | 556.9% | 553 nM | 307.2% | 654 nM
COCC1CCN(c2cc(C(=O)NS(=O)(=O)N3CCC(N4CCC[C@H]4COC)CC3)nc3c2c(C2CCC2)nn3-c2ccccc2)CC1 [Compound 390, 3-cyclobutyl-4-[4-(methoxymethyl)piperidin-1-yl]-N-{4-[(2S)-2-(methoxymethyl)pyrrolidin-1-yl]piperidine-1-sulfonyl}-1-phenyl-1H-pyrazolo[3,4-b]pyridine-6-carboxamide] | 350.17% | 140 nM | 188.2% | 177 nM
CN(C)S(=O)(=O)NC(=O)c1cc(N2CCC(N3CCC(C(F)(F)F)C3)CC2)c2c(C3CCC3)nn(-c3ccc(F)cc3)c2n1 (stereo not drawn) [Compound 560, 3-cyclobutyl-N-(dimethylsulfamoyl)-1-(4-fluorophenyl)-4-{4-[3-(trifluoromethyl)pyrrolidin-1-yl]piperidin-1-yl}-1H-pyrazolo[3,4-b]pyridine-6-carboxamide] | 544.45% | 66.1 nM | 260.4% | 96.3 nM
